Patent US20230413879A1, “FOOD COMPRISING ISOSTEVIOL AND USES THEREOF” (ISOFIRMS APS, priority 2020, published 2023)
Entries after “also recorded” stand apart in the source; their conditions may differ.

Key:
pigs [1] = experiment: Stool firmness / diarrhea in pigs (Example 4); type: in vivo, pig (Danish Landrace); details: groups receiving isosteviol (IPG and IG) compared to control groups (CG and CPG)
piglets [2] = experiment: Larger pig trial: body weight / weight gain (Example 8); type: in vivo, pig (DanBred x Duroc); details: for weight gain versus negative control: week 3-6 and week 1-6 / 42 days trial; for Body weight [kg] Mean SD 0 / Body weight [kg] Median SD 0: baseline
Source text: (§1) Trial with 360 barrows and female piglets (DanBred×Duroc; initial BW of about 6.8 kg).
(§2) Age when trial started approx. 7 days and trial ended after 42 days. They weighed approx. 7 kg initially and have been feed as per normal conventional diet for piglets until delivery.
(§3) Basal diets as per standard industry feed: • Prestarter diet for post-weaning piglets: 7.0 to 9.0 kg BW • Starter diet for piglets: 9.0 to 15.0 kg BW • Grower diet for piglets: 15.0 to 30.0-35.0 kg BW.
(§4) Isosteviol >97% was produced in-house. Isosteviol may be produced by acid-catalysed extraction of Stevia rebaudiana L. Preferably at a pH below 5.5.
(§5) • Negative control: No isosteviol • Treatment 1 (IS10): 1% isosteviol mg/kg Bodyweight (BW) • Treatment 2 (IS13): 1.3% isosteviol mg/kg Bodyweight (BW)
(§6) The pigs were fed standard diets supplemented with Isosteviol as outlined above.
(§7) IsoSteviol Premix 0.71% was produced in Vilofoss Premix factory, and included at 0.29/0.37, 0.25/0.33% (by weight) in complete feed to reach 1/1.3 mg IsoSteviol/kg BW (bodyweight).
(§8) The piglets were randomly distributed in 10 pigsties per treatment when trial started. Food and water were provided ad libitum. The farmer was not aware of which groups received which additional feed, since all feeds were masked to look the same and the control group received a bag similar to the other groups.

pigs [3] = experiment: Turnover rate: days to grow pigs from approx. 30 kg to around 118 kg (Example 6); type: in vivo, pig (Danish Landrace)
Source text: See also previous examples. Turnover rates of the pigs was defined by the time (days) it takes to grow the pigs from approx. 30 kg to around 118 kg. Thus, turnover time is the time it takes to grow the pigs from approx. 30kg to their optimum slaughter weight. The faster the turnover rate is, the faster the pigs goes through the process and consequently this is the determination factor on how many pigs the farmer can deliver to the slaughterhouse within a year.

pigs [4] = experiment: Pig feeding trial: growth rate / weight gain (Example 2); type: in vivo, pig (Danish Landrace); details: for Average weight (kg) start: baseline; for Net growth vs. CG group / Net growth vs. CPG group: index; for Net growth vs. CG group: CG = 100; for Net growth vs. CPG group: CPG = 100; for Average weight (kg) Increase: start to week 8
Source text: Isosteviol in 97% purity was produced in-house. Isosteviol may be produced by acid-catalysed extraction of Stevia rebaudiana L. Preferably at a pH below 5.5.
The pigs were of the type Danish Landrace Age approx. 90 days, gender equally distributed. They weighted approximately 30 kg when delivered and had been fed with a normal conventional diet for piglets until delivery.
• Standard feed is home-blended by the farmer with the ratio: Wheat 55 w %, Barley 35 w %, Rye 10 w %. • Nutritional profile/100 g: • Nutritional content: 1313 KJ • Fat: 1.8 g • Carbohydrate: 68.9 g • Of which sugar: 1.4 g • Fibres: 15.8 g • Protein: 12.8 g • Supplementary feed: The Supplementary feed was distributed as a “Semi Soja 1920” composition (from DLG), which is a supplementary feed high in protein, carbohydrate, and free amino acids.
The pigs were randomly distributed in the five pigsties when trial started. Food and water were provided ad libitum (see Table 2). The farmer was not aware of which groups received which additional feed, since all feeds were masked to look the same and the CG group received a bag similar to the other groups.
Every other week the pigs were weighed, and their growth were noted. The pigs were attended too equally.
Timeframe: Trial started after delivery of the 30 kg pigs and was planned to end when the pigs weighed around 115-118 kg, the weight at trial-end was however around 120 kg (11 weeks). Total time for production is 72 days.
The food intake by each pig during the trial is described in Table 3.

pigs [5] = experiment: Overall uptake of feed judged by generated manure and stool analysis (Example 3); type: in vivo, pig (Danish Landrace)
Description: See example 1. Overall uptake of feed was determined by the amount of generated manure by the different groups.

piglets [6] = experiment: Larger pig trial: feed conversion ratio (FCR) (Example 8); type: in vivo, pig (DanBred x Duroc); details: for Feed conversion ratio (FCR) versus negative control: 42 days trial
Source text: In this regard, the food/feed conversion ratio (FCR) is defined as the ratio between the amount of food eaten by an animal to the output produced by the animal (e.g. amount of meat produced by a pig, amount of milk produced by a cow etc.). Food that is efficiently taken up and converted by the body of the animal to said output obtains a FCR-value lower than a food having a low uptake in the animal. Thus, lower FCR-values are preferred for most applications. In some sectors, feed efficiency, which is the output divided by the input (i.e. the inverse of FCR), is used.
as §1, §2, §3, §4, §5, §6, §7, §8

pigs [7] = experiment: Meat (muscle) percentage at slaughter, ultrasound Autoform (Example 5); type: in vivo, pig (Danish Landrace); details: FIG. 5-6
Description: See also previous examples.
Meat percentage is measured when the pig is dead. The body is prepared and send to an automatic equipment that measures fat/meat thicknesses based on ultrasound measurements called an Autoform. The equipment is certified by third party and the meat percentages in this study was performed by Tican A/S at the slaughterhouse in Brdrup.
Increased meat (muscle) percentage can also be considered to correspond to an increased muscle/fat ratio.

broiler chickens = details: cited from earlier work
[8] = Treatment 1 (IS10), 1 mg IsoSteviol/kg BW in feed
[9] = Treatment 2 (IS13), 1.3 mg IsoSteviol/kg BW in feed
[10] = IG group (standard feed incl. standard dose of supplementary feed + isosteviol 1 mg/kg/day), 8 pigs
[11] = IPG group (standard feed + additional 10 w % supplementary feed + isosteviol 1 mg/kg/day), 9 pigs
[12] = IG group (isosteviol only, 1 mg/kg/day)
[13] = IPG group (additional 10 w % supplementary feed + isosteviol 1 mg/kg/day)

Which results are given for C[C@@]12CC[C@@H]3[C@@](CC[C@H]4[C@@]3(C)CCC[C@@]4(C)C(=O)O)(CC1=O)C2 [isosteviol]?
stool firmness (pigs [1]): more firm; also recorded: much firmer stool; weight gain versus negative control (piglets [2]; Treatment 1 (+Isosteviol), FIG. 10, p<0.0023): significant higher weight gain; also recorded: Observed relevant superiority, significant proven; Body weight [kg] Mean SD 10 (piglets [2]; [8]): 11.568 kg; Body weight [kg] Mean SD 21 (piglets [2]; [8]): 15.783 kg; Body weight [kg] Mean SD 42 (piglets [2]; [8]): 32.660 kg; Body weight [kg] Median SD 10 (piglets [2]; [8]): 11.550 kg; Body weight [kg] Median SD 21 (piglets [2]; [8]): 15.900 kg; Body weight [kg] Median SD 42 (piglets [2]; [8]): 33.200 kg; weight gain versus negative control (piglets [2]; Treatment 2 (+Isosteviol), FIG. 11, p<0.0158): significant higher weight gain; also recorded: Observed relevant superiority, significant proven; Body weight [kg] Mean SD 10 (piglets [2]; [9]): 11.574 kg; Body weight [kg] Mean SD 21 (piglets [2]; [9]): 15.558 kg; Body weight [kg] Mean SD 42 (piglets [2]; [9]): 32.293 kg; Body weight [kg] Median SD 10 (piglets [2]; [9]): 11.500 kg; Body weight [kg] Median SD 21 (piglets [2]; [9]): 15.600 kg; Body weight [kg] Median SD 42 (piglets [2]; [9]): 32.000 kg; Body weight [kg] Mean SD 0 (piglets [2]; [8]): 7.868 kg; Body weight [kg] Median SD 0 (piglets [2]; [8]): 7.850 kg; Body weight [kg] Mean SD 0 (piglets [2]; [9]): 7.865 kg; Body weight [kg] Median SD 0 (piglets [2]; [9]): 7.875 kg; increase of yearly turnover in production vs CG group (pigs [3]; IG group, data not shown): 0.1%; increase of yearly turnover rate in production vs CG group (pigs [3]; IPG group, FIG. 8): around 4.8%; growth exceeding that of control group (CG) (pigs [4]; FIG. 1, Isosteviol and protein group (IPG) vs CG at index 100): 4.0%; growth exceeding that of control+protein group (CPG) (pigs [4]; FIG. 2, Isosteviol and protein group (IPG) vs CPG at index 100): 5.8%; growth exceeding that of control group (CG) (pigs [4]; FIG. 3, Isosteviol group (IG) vs CG at index 100): 0.8%; Average weight (kg) week 8 (pigs [4]; [10]): 99.50 kg; weight gain compared to the Control (CG) group (pigs [4]; IG group, FIG. 3, in words): clear increased weight gain; Average weight (kg) week 8 (pigs [4]; [11]): 99.78 kg; weight gain compared to the control group (CG) (pigs [4]; IPG group, FIG. 1, in words): clear increased weight gain; weight gain compared to the CPG group (pigs [4]; IPG group, FIG. 2, in words): clear increased weight gain; Average weight (kg) start (pigs [4]; [10]): 35.00 kg; Average weight (kg) start (pigs [4]; [11]): 33.11 kg; Net growth vs. CG group (pigs [4]; [12]): 100.8; Net growth vs. CG group (pigs [4]; [13]): 104.0; Net growth vs. CPG group (pigs [4]; [12]): 102.71; Net growth vs. CPG group (pigs [4]; [13]): 105.80; Average weight (kg) Increase (pigs [4]; [12]): 64.50 kg; Average weight (kg) Increase (pigs [4]; [13]): 66.67 kg; appearance of pigs noted by the farmer (muscle to fat ratio) (pigs [5]; IPG group compared to the control group): leaner and more firmly meaty; overall uptake of the feed (amount of generated manure) (pigs [5]; isosteviol added to feed (IPG) vs CPG group, FIG. 4): higher overall uptake of the feed; decrease of the amount of nutritional ingredients in stool (pigs [5]; preliminary stool analysis, considering the quantity of manure discharged, data not shown): approx. 6%; Feed conversion ratio (FCR) versus negative control (piglets [6]; Treatment 1 (+Isosteviol), FIG. 12): significant decreased feed conversion ratio; also recorded: More than relevant superiority; Feed Conversion Ratio (FCR) Mean SD 42 (piglets [6]; [8]): 1.399; Feed Conversion Ratio (FCR) Median SD 42 (piglets [6]; [8]): 1.380; Feed conversion ratio (FCR) versus negative control (piglets [6]; Treatment 2 (+Isosteviol), FIG. 13): significant decreased feed conversion ratio; also recorded: More than relevant superiority; Feed Conversion Ratio (FCR) Mean SD 42 (piglets [6]; [9]): 1.393; Feed Conversion Ratio (FCR) Median SD 42 (piglets [6]; [9]): 1.360; meat (muscle) percentage / muscle/fat ratio (pigs [7]; IG group (isosteviol alone) vs control): very significant increase of the muscle weight; also recorded: increase; meat (muscle) percentage / muscle/fat ratio (pigs [7]; IPG group (isosteviol + supplementary feed) vs control): increased their muscle/fat ratio to a significant degree; also recorded: increase

For C=C1C[C@@]23CC[C@H]4[C@@](C)(CCC[C@@]4(C)C(=O)O[C@@H]4O[C@H](CO)[C@@H](O)[C@H](O)[C@H]4O)[C@@H]2CC[C@]1(O[C@@H]1O[C@H](CO)[C@@H](O)[C@H](O)[C@H]1O[C@@H]1O[C@H](CO)[C@@H](O)[C@H](O)[C@H]1O)C3 [stevioside], which “effect on the broilers” value (broiler chickens; fed orally to broiler chickens) is on record?
Its value is “no positive effect”.

And the “abdominal fat content of the chicken” value (broiler chickens; in a diet for broilers)?
Its value is “significantly increased”.
